Results from ChEMBL document CHEMBL1201862, “PubChem BioAssay data set” (2004).
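In this assay, cells in 96-well plates receive the compound at five concentrations for 48 hours. Endpoints are linearly interpolated between the surrounding concentrations. Abbreviation: GI50, concentration required for 50% inhibition of growth.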 The source made the active and inactive calls. Cut-off read from the data, not from the text of the source: active = GI50 up to about 1.1 µM and inactive = higher.

How the values were obtained:
Test in all cases: DTP human tumour cell line panel, 48 h
SW-620 = test system: SW-620
HT-29 = test system: HT-29
UACC-257 = test system: UACC-257
OVCAR-4 = test system: OVCAR-4
Malme-3M = test system: Malme-3M
OVCAR-3 = test system: OVCAR-3
SK-OV-3 = test system: SK-OV-3
NCI-H23 = test system: NCI-H23
NCI-H522 = test system: NCI-H522
SK-MEL-5 = test system: SK-MEL-5
CCRF-CEM = test system: CCRF-CEM
A549 = test system: A549
NCI-H226 = test system: NCI-H226
SNB-19 = test system: SNB-19
HCT-116 = test system: HCT-116
CAKI-1 = test system: CAKI-1
786-0 = test system: 786-0
A498 = test system: A498

Measured: GI50

CC1OC=CC(=O)C1O (stereo unspecified)
inactive: SW-620 > 100 µM | HT-29 > 100 µM | UACC-257 > 100 µM | OVCAR-4 > 100 µM | Malme-3M > 100 µM | OVCAR-3 > 100 µM | SK-OV-3 > 100 µM | NCI-H23 > 100 µM | NCI-H522 50.4 µM | SK-MEL-5 > 100 µM | CCRF-CEM 69.7 µM | A549 > 100 µM

O=C1OC(c2ccccc2)=N/C1=C/c1cccs1
inactive: SW-620 > 100 µM | HT-29 > 100 µM | UACC-257 65.6 µM | OVCAR-4 41 µM | NCI-H226 58.3 µM | SNB-19 61.9 µM | OVCAR-3 26.8 µM | SK-OV-3 > 100 µM | CCRF-CEM 23.4 µM | A549 > 100 µM

CS/C(=N\C(=S)N(C)C)N(c1ccccc1)c1nc(N(C)C)s[s+]1
inactive: SW-620 4.05 µM | HT-29 2.67 µM | UACC-257 3.95 µM | OVCAR-4 12.2 µM | HCT-116 10 µM | SNB-19 32.6 µM | Malme-3M 2.34 µM | OVCAR-3 10.8 µM | CAKI-1 29 µM | 786-0 16.4 µM | A498 1.9 µM | SK-OV-3 41.3 µM | NCI-H23 12.4 µM | NCI-H522 1.47 µM | CCRF-CEM 1.88 µM | A549 3.84 µM

CCOC(=O)NC(=O)c1cn(CCSCCOC(=O)NCCCCCCNC(=O)OCCSCCn2cc(C(=O)NC(=O)OCC)c(=O)n(C)c2=O)c(=O)n(C)c1=O
inactive: SW-620 29.8 µM | HT-29 52.5 µM | UACC-257 24.4 µM | NCI-H226 21.1 µM | HCT-116 19.2 µM | SNB-19 34 µM | Malme-3M 24.6 µM | OVCAR-3 23.8 µM | 786-0 30.3 µM | SK-OV-3 34.7 µM | NCI-H23 19.9 µM | CCRF-CEM 30 µM | A549 45.2 µM

CC1(c2cc3c(cc2Br)OCO3)SCCCS1
inactive: SW-620 42.1 µM | HT-29 32.1 µM | OVCAR-4 36.3 µM | NCI-H226 32.4 µM | HCT-116 31.7 µM | SNB-19 47.4 µM | OVCAR-3 38.4 µM | 786-0 44.3 µM | A498 58.5 µM | SK-OV-3 > 100 µM | NCI-H23 13.3 µM | NCI-H522 1.84 µM | SK-MEL-5 20.4 µM | CCRF-CEM 32.1 µM | A549 34.5 µM

O=C(O)COc1ccccc1C(=O)Nc1ccccc1
inactive: SW-620 > 100 µM | HT-29 > 100 µM | UACC-257 > 100 µM | OVCAR-4 > 100 µM | NCI-H226 > 100 µM | HCT-116 > 100 µM | SNB-19 > 100 µM | Malme-3M > 100 µM | OVCAR-3 > 100 µM | CAKI-1 > 100 µM | 786-0 > 100 µM | SK-OV-3 > 100 µM | NCI-H23 > 100 µM | NCI-H522 > 100 µM | SK-MEL-5 > 100 µM | CCRF-CEM > 100 µM | A549 > 100 µM

CN(C)/N=C(\CCN1CCCC1)CC(c1ccccc1)c1c(O)c2ccccc2oc1=O (stereo unspecified)
inactive: SW-620 > 100 µM | HT-29 > 100 µM | UACC-257 > 100 µM | OVCAR-4 > 100 µM | NCI-H226 > 100 µM | HCT-116 > 100 µM | SNB-19 > 100 µM | Malme-3M > 100 µM | OVCAR-3 > 100 µM | CAKI-1 > 100 µM | 786-0 > 100 µM | SK-OV-3 > 100 µM | NCI-H23 > 100 µM | NCI-H522 > 100 µM | CCRF-CEM > 100 µM | A549 > 100 µM

CCc1ccccc1NC(=O)CCc1n[nH]c(=S)o1
inactive: SW-620 18.6 µM | HT-29 > 100 µM | UACC-257 > 100 µM | OVCAR-4 > 100 µM | NCI-H226 > 100 µM | HCT-116 18.5 µM | SNB-19 > 100 µM | Malme-3M > 100 µM | OVCAR-3 > 100 µM | CAKI-1 > 100 µM | 786-0 > 100 µM | A498 > 100 µM | SK-OV-3 > 100 µM | NCI-H23 > 100 µM | SK-MEL-5 > 100 µM | CCRF-CEM > 100 µM | A549 > 100 µM

O=C(O)CCNCCCNCCC(=O)O
inactive: SW-620 > 100 µM | HT-29 > 100 µM | OVCAR-4 > 100 µM | NCI-H226 > 100 µM | HCT-116 > 100 µM | SNB-19 > 100 µM | Malme-3M > 100 µM | OVCAR-3 > 100 µM | CAKI-1 > 100 µM | 786-0 > 100 µM | A498 > 100 µM | SK-OV-3 > 100 µM | NCI-H23 > 100 µM | NCI-H522 > 100 µM | SK-MEL-5 > 100 µM | CCRF-CEM > 100 µM | A549 > 100 µM

C#Cc1c(C)c(/C=C/C(C)=C/C=C/C(C)=C/C(=O)OC)n(C)c1C
inactive: SW-620 > 100 µM | HT-29 > 100 µM | UACC-257 > 100 µM | OVCAR-4 > 100 µM | HCT-116 > 100 µM | SNB-19 > 100 µM | Malme-3M > 100 µM | OVCAR-3 > 100 µM | CAKI-1 > 100 µM | 786-0 > 100 µM | NCI-H23 > 100 µM | NCI-H522 > 100 µM | CCRF-CEM > 100 µM | A549 > 100 µM
active: SK-OV-3 0.428 µM

COC(=O)/C(C#N)=C1\NN=NN1CCCc1ccccc1
inactive: SW-620 > 100 µM | HT-29 > 100 µM | UACC-257 > 100 µM | NCI-H226 > 100 µM | HCT-116 > 100 µM | SNB-19 > 100 µM | Malme-3M > 100 µM | OVCAR-3 > 100 µM | CAKI-1 > 100 µM | 786-0 > 100 µM | A498 84.3 µM | SK-OV-3 > 100 µM | NCI-H23 > 100 µM | NCI-H522 13.5 µM | SK-MEL-5 > 100 µM | CCRF-CEM > 100 µM | A549 > 100 µM

CCOC(=O)C1=C(C)N(NC(N)=O)C(C)(O)C12CCOC2=O (stereo unspecified)
inactive: SW-620 > 100 µM | HT-29 > 100 µM | UACC-257 > 100 µM | OVCAR-4 > 100 µM | NCI-H226 > 100 µM | HCT-116 > 100 µM | SNB-19 > 100 µM | Malme-3M > 100 µM | OVCAR-3 > 100 µM | CAKI-1 > 100 µM | 786-0 > 100 µM | A498 > 100 µM | SK-OV-3 > 100 µM | NCI-H522 > 100 µM | SK-MEL-5 > 100 µM | A549 > 100 µM

Cc1ccccc1C(=O)c1c(O)c2c(c(O)c1Br)CCCC2
inactive: SW-620 18.7 µM | HT-29 27.9 µM | UACC-257 14.7 µM | OVCAR-4 14.9 µM | NCI-H226 25.4 µM | HCT-116 16.6 µM | SNB-19 23 µM | Malme-3M 11.5 µM | OVCAR-3 13.8 µM | CAKI-1 20.1 µM | 786-0 14.5 µM | A498 22.1 µM | SK-OV-3 21.8 µM | NCI-H23 26.2 µM | NCI-H522 10.5 µM | SK-MEL-5 18.5 µM | A549 23.2 µM

CCCCCCCCOC(CO)CO
inactive: SW-620 > 100 µM | HT-29 > 100 µM | UACC-257 > 100 µM | OVCAR-4 > 100 µM | NCI-H226 > 100 µM | HCT-116 > 100 µM | SNB-19 > 100 µM | Malme-3M > 100 µM | OVCAR-3 > 100 µM | CAKI-1 > 100 µM | 786-0 > 100 µM | A498 > 100 µM | SK-OV-3 > 100 µM | NCI-H23 > 100 µM | SK-MEL-5 > 100 µM | CCRF-CEM > 100 µM | A549 > 100 µM

COC1/C(=C\c2ccccc2I)c2ccccc2N1C(C)=O (stereo unspecified)
inactive: SW-620 20.6 µM | HT-29 15.6 µM | UACC-257 18.3 µM | OVCAR-4 16.2 µM | HCT-116 13.8 µM | SNB-19 22.6 µM | OVCAR-3 16.6 µM | CAKI-1 17.1 µM | 786-0 18.1 µM | A498 15.8 µM | NCI-H23 15.7 µM | CCRF-CEM 17 µM | A549 16 µM

CC(NC1CCCC[C@@H]1O)c1ccccc1 (stereo partly specified)
inactive: SW-620 > 100 µM | HT-29 > 100 µM | UACC-257 > 100 µM | OVCAR-4 > 100 µM | NCI-H226 > 100 µM | HCT-116 > 100 µM | SNB-19 > 100 µM | Malme-3M > 100 µM | OVCAR-3 > 100 µM | CAKI-1 55.3 µM | 786-0 > 100 µM | SK-OV-3 > 100 µM | SK-MEL-5 > 100 µM | CCRF-CEM > 100 µM | A549 > 100 µM

Cc1nc2c(o1)/C(=N\c1ccccc1)c1ccccc1/C2=N/c1ccccc1
inactive: SW-620 16.9 µM | HT-29 94.2 µM | UACC-257 > 100 µM | OVCAR-4 58.7 µM | HCT-116 70.8 µM | SNB-19 > 100 µM | Malme-3M 56.6 µM | OVCAR-3 26.6 µM | CAKI-1 > 100 µM | 786-0 45.1 µM | A498 > 100 µM | SK-OV-3 > 100 µM | NCI-H23 49.2 µM | NCI-H522 33 µM | SK-MEL-5 > 100 µM | CCRF-CEM 58.2 µM | A549 > 100 µM

Cc1cc(O)c2c(c1)C(=O)c1cc(O)cc(O)c1C2=O [EMODIN]
inactive: SW-620 27.6 µM | HT-29 33.7 µM | UACC-257 28.1 µM | OVCAR-4 30.6 µM | NCI-H226 20.1 µM | HCT-116 24 µM | SNB-19 31.8 µM | Malme-3M 11 µM | CAKI-1 17.1 µM | A498 21.3 µM | SK-OV-3 30.7 µM | NCI-H23 14.9 µM | NCI-H522 27.4 µM | SK-MEL-5 5.94 µM | CCRF-CEM > 61.8 µM | A549 23 µM
